Results as given in PubChem BioAssay AID1996.
≈ marks a conversion by molar mass, not a printed value. Residues, ends and D or L forms follow the SMILES beside them. *: point of attachment. OBn = c1ccc(CO*)cc1

conditions: buffer; pH 7.4; 200.0 µM

Row | solubility kinetic [µg/mL] | SMILES
1 | > 44.1 | CC(C)N(C(=O)Cn1c(Cl)nc2ccccc21)C(C)C
2 | 20.7 (≈ 97.5 µM) | Cc1ccccc1NC(=O)c1cccnc1
3 | 13.5 (≈ 41.5 µM) | CC(C)CCNC(=O)COc1ccc(C(=O)c2ccccc2)cc1
4 | 5.9 (≈ 15 µM) | CCOc1ccc2[nH]c3c(NCCc4ccc(OC)c(OC)c4)ncnc3c2c1
5 | > 49 | CC(c1ccccc1)N1CC(C(=O)Nc2ccc(F)cc2)CC1=O (stereo not drawn)
6 | 40.3 (≈ 129 µM) | O=C(CCc1c[nH]c2ccccc12)NCc1cccc(Cl)c1
7 | > 49.4 | CC1(C)CC(NC(=O)c2ccc(Br)o2)CC(C)(C)N1
8 | > 55.1 | CCN(C(=O)CSc1nc2ccc(C)cc2[nH]1)C1CCS(=O)(=O)C1 (stereo not drawn)
9 | > 47.9 | CCC(NC(=O)c1cncc(Br)c1)c1ccccc1 (stereo not drawn)
10 | 6.1 (≈ 22.2 µM) | O=C(NC1=NCCS1)c1ccc(C(F)(F)F)cc1
11 | > 44 | Cc1cccc(C(=O)OCC(=O)NCC2CCCO2)c1O (stereo not drawn)
12 | > 74.1 | CCN(CC(=O)NCc1ccc(Cl)cc1)C(=O)c1cc(S(=O)(=O)N2CCOCC2)ccc1C
13 | > 52 | COc1ccc(CNC(=O)C2(CC(=O)NC(C)(C)C)CCCC2)cc1
14 | 53.4 (≈ 149 µM) | CC(CCc1ccc(O)cc1)NCCC(c1ccccc1)c1ccccc1 (stereo not drawn)
15 | 18.7 (≈ 49.1 µM) | O=[N+]([O-])c1c(NCCCO)cc(Sc2ccc(Cl)cc2)c2nonc12
16 | 45.2 (≈ 142 µM) | CC(=O)N(C)c1ccc(NC(=O)Nc2ccc(Cl)cc2)cc1
17 | > 48.8 | O=C(CCC(=O)OCC(F)(F)C(F)F)Nc1ccccc1F
18 | 48.2 | COc1cc(CNCc2ccccc2)cc(Cl)c1OC.Cl
19 | > 47.7 | COC(=O)/C=C/c1c(C)nc(NCc2ccccc2)nc1Cl
20 | 3.8 (≈ 13.3 µM) | COc1ccc2nc(Nc3ccccc3OC)sc2c1

Further lines, the compound ahead of its results:

Row | SMILES | solubility kinetic [µg/mL]
21 | CCC1CN(C(=O)NCc2ccc(F)cc2)c2cc(Cl)ccc2O1 (stereo not drawn) | 1.3 (≈ 3.73 µM)
22 | O=S(=O)(NC1=NCCCCC1)c1ccc(Cl)cc1 | > 43
23 | Cn1c(SCC(=O)NCc2ccco2)nnc1C1CC1 | > 43.9
24 | Cc1ccccc1NC(=O)CON=C(N)c1ccccc1 | > 42.5
25 | Cc1cccc(C(=O)O/N=C(\N)c2ccc(Cl)cc2)c1 | < 0.3
26 | O=[N+]([O-])c1ccc(Oc2ncccn2)cc1 | 28.4 (≈ 131 µM)
27 | O=C(CN1C(=O)c2ccccc2S1(=O)=O)c1ccc(F)cc1 | 9.7 (≈ 30.4 µM)
28 | CC(=O)N1CCN(C(=O)COC(=O)/C=C/c2ccc(C(F)(F)F)cc2)CC1 | > 57.7
29 | COc1cccc(NC(=O)COC(=O)/C=C/c2ccco2)c1 | 30.5 (≈ 101 µM)
30 | CC1CCCC(C)N1C(=O)COC(=O)CN1C(=O)c2ccccc2C1=O (stereo not drawn) | > 53.8
31 | COCCNC(=O)[C@@H]1CSC2c3ccccc3C(=O)N21 (stereo partly drawn) | > 43.9
32 | CCOc1cccc(NC(=O)c2cnccc2C(F)(F)F)c1 | 43.2 (≈ 139 µM)
33 | COc1ccc(OC)c(CNC(=O)C2CCN(S(C)(=O)=O)CC2)c1 | > 53.5
34 | COc1ccc2nc(N/C(N)=N/S(C)(=O)=O)nc(C)c2c1 | 3.1 (≈ 10 µM)
35 | Cc1ccc(CONC(=O)c2cccc([N+](=O)[O-])c2)cc1 | > 42.9
36 | COc1ccccc1N(CC1CO1)S(=O)(=O)c1ccc(C)cc1 (stereo not drawn) | 47.5 (≈ 142 µM)
37 | O=c1cc(NCc2ccccc2)[nH]c(=O)[nH]1 | > 32.6
38 | COc1cccc2cc(C(=O)N3CCCCCCC3)c(=O)oc12 | > 47.3
39 | Cc1ccc(O)c(NC(=O)c2onc(C)c2Cl)c1 | 6.2 (≈ 23.2 µM)

Row | SMILES | solubility kinetic [µg/mL]
40 | COc1ccc(CC(=O)NCCN2CCOCC2)cc1 | > 41.8
41 | COc1ccc(NC(=O)Nc2c(C)noc2-c2ccccc2)cc1 | 7.5 (≈ 23.2 µM)
42 | O=C(Nn1cnc2ccccc2c1=O)c1c(F)cccc1F | > 45.2
43 | COC(CNc1ccc([N+](=O)[O-])c(NCC(OC)OC)c1C#N)OC | 19 (≈ 53.6 µM)
44 | N#Cc1ccccc1COC(=O)CCN=C1NS(=O)(=O)c2ccccc21 | 52.4 (≈ 142 µM)
45 | O=C(Cn1c(=O)oc2ccccc21)Nc1ccc(Cl)cc1 | 1.8 (≈ 5.95 µM)
46 | CCCN1C(=O)/C(=C/c2nc3ccccc3c(=O)[nH]2)c2cc(C)ccc21 | < 0.2
47 | CC(=O)NCC(=O)N[C@@H](CC(=O)OCc1ccccc1)C(=O)OCc1ccccc1 (Ac-Gly-Asp(OBn)-OBn) | > 61.9
48 | Nc1c2c(nc3sc4c(c13)CCCC4)-c1ccccc1CC2 | < 0.3
49 | O=C(NCCNC(=O)c1ccccc1O)c1ccccc1O | 32.3 (≈ 108 µM)
50 | COc1cc(C(=O)OCC(=O)NCC2CCCO2)cc(OC)c1OC (stereo not drawn) | > 53
51 | Cc1cc(=S)c2ccccc2[nH]1 | 20.5 (≈ 117 µM)
52 | Cc1cc(C(=O)NCc2ccccc2Cl)c2ccccc2n1 | 4.1 (≈ 13.2 µM)
53 | COCCCn1c(=O)c2sccc2n(Cc2cccc(C)c2)c1=O | 15.1 (≈ 43.8 µM)
54 | O=C(COC(=O)Cc1ccc([N+](=O)[O-])cc1)NC1CCCCCC1 | > 50.2
55 | CCCS(=O)(=O)N1CCCC(C(=O)c2ccccc2OC)C1 (stereo not drawn) | > 48.8
56 | CC(=O)NS(=O)(=O)c1ccc(NC(=O)c2cccc3ccccc23)cc1 | 53.9 (≈ 146 µM)
57 | Cn1c(=O)c2c(nc(Cl)n2CCOc2ccccc2)n(C)c1=O | 6.7 (≈ 20 µM)
58 | Cn1cccc1C(=O)NC1CCCCCC1 | > 33
